According to US10391015B2, “Apparatus and method for restoring voluntary control of locomotion in neuromotor impairments” (ECOLE POLYTECHNIQUE FEDERALE DE LAUSANNE (EPFL), priority 2012, dated 2019):

Legend:
T8-T9 neurons = assay: Ablation of T8-T9 neurons by NMDA infusion in overground-trained SCI rats; format: in vivo, rat; settings: overground-trained rats with T7/T10 staggered hemisections, NMDA 1% in dH2O into 14 sites, tested 5 days post-lesion, p<0.01, functionality of lumbosacral circuits uncompromised
Protocol: (§1) To ablate T8-T9 neurons, we infused NMDA (1% in dH2O) into 14 sites (depth 1 mm, total volume 3 μl) covering spinal levels T8-T9. Rats were tested 5 days post-lesion, and sacrificed on the following day. The ablation of neurons was verified post mortem on tissue sections stained with mouse anti-NeuN (1:500, Chemicon, USA) antibodies. To inactivate the motor cortex, we injected the GABA-agonist muscimol intra-cortically (800 nl, 4.5 mg/Kg). Five days prior to experiments, we stereotaxically implanted a catheter (OD: 0.61 mm, ID: 0.28 mm) into the left motor cortex at a depth of 1.5 mm. Proper catheter location was verified post mortem on tissue sections stained (Invitrogen, USA) for fluorescent Nissl visualization.
Anatomical examinations highlighted an extensive remodelling of supraspinal and intraspinal projections in rats that regained voluntary locomotion. We first conducted retrograde tract tracing from L1-L2 locomotor centers. We found a significant increase (p<0.01) in the number of labeled neurons in intermediate and ventral laminae of T8-T9 segments in both overground-trained and treadmill-trained rats compared to non-trained animals. Analysis of the activity-dependent marker cfos after continuous overground locomotion confirmed that the labeled neurons were active during walking. […]

left motor cortex = assay: Inactivation of the motor cortex by muscimol microinjection in overground-trained SCI rats; format: in vivo, rat; settings: overground-trained rats with T7/T10 staggered hemisections; intra-cortical microinjection into left motor cortex (800 nl, 4.5 mg/Kg); p<0.01; functionality of lumbosacral circuits uncompromised
Protocol: as §1
Contrary to primates, the rodent motor cortex is not essential to produce locomotion (G. Courtine et al., Can experiments in nonhuman primates expedite the translation of treatments for spinal cord injury in humans? Nature medicine 13, 561 (May, 2007)). […] First, we implanted stimulating epidural electrodes over the left motor cortex to verify that the reorganization of neuronal pathways re-established connectivity across the lesion. […] Second, we implanted a microwire array in the vicinity of CST neurons projecting to T8-T9 segments, and recorded neuronal modulations during voluntary locomotion in overground-trained rats (n=3). […]

CN[C@H](CC(=O)O)C(=O)O [NMDA, N-methyl-D-aspartic acid]
effect on regained voluntary locomotion (T8-T9 neurons): abolished the regained voluntary locomotion

NCc1cc(=O)[nH]o1 [Muscimol, muscimol]
effect on voluntary hindlimb locomotion (left motor cortex): immediately suppressed voluntary hindlimb locomotion
